# Measurements reported in patent EP0580968B1, “Vitamin D3 fluorinated analogs” (F. HOFFMANN-LA ROCHE AG, priority 1992, dated 1994).
# Tested on: HL-60 tumor cell line
# Assay: HL-60 Differentiation Assay (NBT reduction)
# Format: cell-based
# Details: 4 days incubation; for % Differentiated cells: NBT/TPA
# Experimental: HL-60 Differentiation Assay:
# The HL-60 tumor cell line was originally derived from a patient with promyelocytic leukemia. The cells are maintained in suspension and diluted to 200,000 cells/ml in 5 ml of suspension media. Compounds were tested at four concentrations in duplicate flasks. Control flasks were supplemented with vehicle alone at the highest concentration such as 0.1% ethanol. Flasks are incubated upright for 4 days in 5% CO2 at 37°C. On day 4, a 1 ml aliquot of cells was centrifuged, the media removed and the cells resuspended in a 0.2 ml of solution of nitroblue tetrazolium/phorbol 12 myristate 13-acetate (NBT/TPA). The cells are suspended and incubated at 37°C for 30 min. prior to transferring to ice. An aliquot is removed and a total of 200 cells is counted using a hemocytometer. Cells without pigmented granules are judged to be undifferentiated while those containing blue black formazan (indicating conversion of NBT) granules were scored as differentiated. Results are expressed as percent differentiated cells by calculating the ratio of the number of dark cells per total number of cells counted.
compound,measurement,setting,value
"CC(CC#CC(O)(C(F)(F)F)C(F)(F)F)C1=CCC2C(=CC=C3CC(O)CC(O)C3)CCCC12C (stereo not shown) [Compound D, 1,25-dihydroxy-16-ene-23-yne-26,27-hexafluoro-19-nor-cholecalciferol]",EC50,"Homo sapiens, 96 h, HL-60 differentiation, read-out: ED50 (the source's name)",800 pM
same,% Differentiated cells,concentration 10^-8 (unit not given),89.5%
same,% Differentiated cells,concentration 10^-9 (unit not given),56.5%
same,% Differentiated cells,concentration 10^-10 (unit not given),1.5%
